From publication PMC5620609 (Pharmaceuticals, 2017)
Blank lines part the entries; values can stand above or below the compound they belong to.

How the values were obtained:
[1] = reported for decitabine; cited from earlier work
[2] = in vivo; conditions: mouse, iv, 5 mg/kg
Method: Three mice were placed in a dose group on the first day of treatment (Day 1). […] Animals were observed daily for mortality and moribundity. Body weights were measured daily starting on day 1.

[3] = target: T1, RNR (Homo sapiens, UniProt P23921); assay: RNR inhibition whole cell assay (HPLC of nucleotides from HeLa cell extracts); format: cell-based; conditions: 50 µM, 16 h
T1 construct: endogenous in cells; host or cells: HeLa
T1 sequence (P23921 1-792): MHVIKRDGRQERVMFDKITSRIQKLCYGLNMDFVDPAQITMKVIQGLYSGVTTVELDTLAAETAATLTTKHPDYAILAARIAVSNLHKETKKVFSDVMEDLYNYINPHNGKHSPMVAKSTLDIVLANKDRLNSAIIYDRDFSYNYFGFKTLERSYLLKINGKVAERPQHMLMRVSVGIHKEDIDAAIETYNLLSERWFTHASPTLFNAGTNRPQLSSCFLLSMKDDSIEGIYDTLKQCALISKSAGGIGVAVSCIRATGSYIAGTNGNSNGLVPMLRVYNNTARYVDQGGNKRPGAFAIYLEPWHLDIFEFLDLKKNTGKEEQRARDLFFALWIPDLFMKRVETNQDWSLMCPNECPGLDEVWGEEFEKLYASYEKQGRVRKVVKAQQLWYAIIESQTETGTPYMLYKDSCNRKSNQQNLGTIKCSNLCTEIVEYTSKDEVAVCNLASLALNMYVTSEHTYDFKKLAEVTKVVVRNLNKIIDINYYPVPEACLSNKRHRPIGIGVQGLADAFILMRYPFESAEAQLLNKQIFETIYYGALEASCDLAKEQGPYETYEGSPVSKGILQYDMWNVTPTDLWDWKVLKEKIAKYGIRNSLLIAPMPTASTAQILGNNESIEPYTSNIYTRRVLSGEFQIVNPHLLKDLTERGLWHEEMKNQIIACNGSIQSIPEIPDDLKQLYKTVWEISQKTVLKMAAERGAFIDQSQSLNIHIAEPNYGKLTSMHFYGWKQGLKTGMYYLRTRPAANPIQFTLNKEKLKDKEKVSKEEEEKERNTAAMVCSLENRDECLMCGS
T1 sequence (P31350 1-389 partner): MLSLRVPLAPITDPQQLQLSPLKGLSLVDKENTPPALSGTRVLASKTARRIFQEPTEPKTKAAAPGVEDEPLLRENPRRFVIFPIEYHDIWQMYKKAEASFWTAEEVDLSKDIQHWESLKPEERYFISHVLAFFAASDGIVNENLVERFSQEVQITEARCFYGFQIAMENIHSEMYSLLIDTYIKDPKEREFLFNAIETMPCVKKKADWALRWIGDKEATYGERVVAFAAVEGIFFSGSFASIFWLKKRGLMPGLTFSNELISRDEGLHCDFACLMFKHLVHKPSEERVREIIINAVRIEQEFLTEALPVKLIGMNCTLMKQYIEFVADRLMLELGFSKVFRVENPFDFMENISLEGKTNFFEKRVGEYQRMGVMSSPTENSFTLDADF
Excerpt: Gemcitabine was used as a positive control.
The method used to extract and quantitate nucleotides followed previously reported procedures.

[4] = system: human colon cancer cell line HCT-116; assay: In vitro growth inhibition (CellTiter-Glo), HCT-116; format: cell-based; conditions: HCT 116 TP53(-/-), read-out: GI50 (concentration of drug that inhibited 50% of cell growth), 72 h exposure
Method: Cells were grown in an appropriate medium for the cell line of interest; 96 well plates of each cell line were seeded with 5000 cells per well and left overnight. Drug exposed cells were incubated at 37 °C for 72 h. At the end of the 72 h exposure period, plates were removed for the CellTiter-Glo® assay. Luminescence was recorded on a Synergy 4.0. Assays were performed in triplicate.

[5] = system: total DNMT; assay: Total DNMT inhibition, colorimetric assay in HCT-116 cells; format: cell-based, human; conditions: 24 h
Method: Total DNMT activity was measured in the colon cancer cell line HCT-116. The assay was performed using the EpiQuick^TM DNA Methyltransferase Activity/Inhibition Assay Kit (Epigentek, Brooklyn, NY, USA). […] Assays were performed three times in triplicate.

SMILES: Nc1ncn([C@H]2C[C@H](O)[C@@H](CO)O2)c(=O)n1 [decitabine, 5-aza-2′-deoxycytidine]
half-life [1]: 30 min | MTD at 3 weeks [2]: < 5 mg/kg

ADP concentration [3]: 15,639 | ATP concentration [3]: 26,296 | CTP concentration [3]: 1297 | GTP concentration [3]: 2036 | UTP concentration [3]: 4801 | dATP, peak area [3]: 0 AU | dGDP, peak area [3]: 7.95 AU | dTDP, peak area [3]: 43.4 AU | dUTP, peak area [3]: 5.3 AU
SMILES: Nc1ccn([C@@H]2O[C@H](CO)[C@@H](O)C2(F)F)c(=O)n1 [Gemcitabine, gemcitabine, reference compound]

GI50 [4]: 620 nM
SMILES: Nc1ncn([C@@H]2O[C@H](CO)[C@@H](O)[C@H]2O)c(=O)n1 [5-azacytidine]
inhibition of total DNMT ([5]; 1 µM, mean of 3 experiments): 19.2% | inhibition of total DNMT ([5]; 10 µM): 48.6%
